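Briefly, cells in 96-well plates were exposed to five compound concentrations for 48 h, and endpoints were estimated by linear interpolation. GI50: concentration for 50% inhibition of growth.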 Active and inactive are the calls of the source. Cut-off read from the data, not from the text of the source: active = GI50 up to about 1.1 µM and inactive = higher.
How the values were obtained:
Experiment in all cases: inhibition of tumour cell growth, NCI panel, 48 h
ACHN = tested on: ACHN
SN12C = tested on: SN12C
EKVX = tested on: EKVX
UACC-62 = tested on: UACC-62
SNB-75 = tested on: SNB-75
LOX IMVI = tested on: LOX IMVI
HOP-62 = tested on: HOP-62
MOLT-4 = tested on: MOLT-4
SF-539 = tested on: SF-539
SK-MEL-28 = tested on: SK-MEL-28
A498 = tested on: A498
786-0 = tested on: 786-0
SK-OV-3 = tested on: SK-OV-3
KM-20L2 = tested on: KM-20L2
UO-31 = tested on: UO-31
HCC 2998 = tested on: HCC 2998
RXF 393 = tested on: RXF 393
SF-295 = tested on: SF-295
SR = tested on: SR
Hs-578T = tested on: Hs-578T

Measured: GI50

CSC1C=C(C(C)C)CCC1(C)SC (stereo not drawn)
inactive: ACHN 18.7 µM | SN12C 16.9 µM | EKVX 24.5 µM | UACC-62 25.6 µM | SNB-75 17.6 µM | LOX IMVI 18.3 µM | HOP-62 19.5 µM | MOLT-4 16.5 µM | SF-539 18.7 µM | SK-MEL-28 19.4 µM | A498 25.6 µM | 786-0 17.8 µM | SK-OV-3 21.4 µM | KM-20L2 28.2 µM | UO-31 14.3 µM | HCC 2998 16.6 µM | RXF 393 15.5 µM

CCOC(=O)/C=C(/CN1C(=O)c2ccccc2C1=O)c1ccccc1
inactive: ACHN > 100 µM | SN12C > 100 µM | EKVX > 100 µM | UACC-62 > 100 µM | SNB-75 > 100 µM | LOX IMVI > 100 µM | HOP-62 > 100 µM | MOLT-4 > 100 µM | SF-539 > 100 µM | SK-MEL-28 > 100 µM | A498 > 100 µM | 786-0 > 100 µM | SK-OV-3 > 100 µM | KM-20L2 > 100 µM | SF-295 > 100 µM | UO-31 > 100 µM | HCC 2998 > 100 µM | RXF 393 > 100 µM

C[N+](C)(C)C1CC([N+](C)(C)C)C2c3ccccc3C21 (stereo not drawn)
inactive: ACHN > 100 µM | SN12C > 100 µM | EKVX > 100 µM | UACC-62 > 100 µM | SNB-75 > 100 µM | LOX IMVI > 100 µM | HOP-62 > 100 µM | SF-539 > 100 µM | SK-MEL-28 > 100 µM | A498 > 100 µM | 786-0 > 100 µM | SK-OV-3 > 100 µM | KM-20L2 > 100 µM | SF-295 > 100 µM | UO-31 > 100 µM | HCC 2998 > 100 µM | RXF 393 > 100 µM

O=C(CC1(O)C(=O)Nc2c(Cl)ccc(Cl)c21)c1ccc(F)cc1 (stereo not drawn)
inactive: ACHN 66.1 µM | SN12C 60.1 µM | EKVX 44.4 µM | SNB-75 24.1 µM | LOX IMVI 32.7 µM | HOP-62 46.7 µM | MOLT-4 25 µM | SK-MEL-28 > 100 µM | 786-0 31.2 µM | SK-OV-3 > 100 µM | KM-20L2 39.8 µM | SF-295 36 µM | UO-31 44.5 µM | HCC 2998 82.4 µM | RXF 393 29.5 µM

OC12CCC3(OC4CCCCO4)c4ccccc4C3C1c1ccccc12 (stereo not drawn)
inactive: ACHN 41.7 µM | SN12C 87.7 µM | EKVX > 100 µM | UACC-62 56.8 µM | SNB-75 > 100 µM | SR 37.2 µM | LOX IMVI 38.8 µM | HOP-62 > 100 µM | MOLT-4 35.4 µM | SK-MEL-28 76 µM | 786-0 67.5 µM | SK-OV-3 > 100 µM | KM-20L2 59.3 µM | SF-295 52.5 µM | UO-31 59.6 µM | RXF 393 44.6 µM

NC(=O)c1nc(-c2ccc(Cl)c(Cl)c2)nc2ccccc12
inactive: ACHN > 20.8 µM | SN12C > 100 µM | EKVX > 41.6 µM | UACC-62 > 24.9 µM | SNB-75 2.68 µM | SR > 100 µM | LOX IMVI > 100 µM | HOP-62 > 21.9 µM | MOLT-4 > 100 µM | SF-539 13.4 µM | A498 16.1 µM | 786-0 3.69 µM | SK-OV-3 12.1 µM | KM-20L2 > 100 µM | RXF 393 12.5 µM

COc1ccc(NC(=O)CC(=O)N/N=C(\C)c2cc3ccccc3oc2=O)cc1
inactive: ACHN > 100 µM | SN12C > 100 µM | EKVX > 100 µM | UACC-62 > 100 µM | SNB-75 > 100 µM | LOX IMVI > 100 µM | HOP-62 > 100 µM | MOLT-4 > 100 µM | SF-539 > 100 µM | SK-MEL-28 > 100 µM | 786-0 > 100 µM | SK-OV-3 > 100 µM | KM-20L2 > 100 µM | SF-295 > 100 µM | UO-31 > 100 µM | RXF 393 > 100 µM

O=C(O)c1cccc(CC(Br)C(=O)O)c1 (stereo not drawn)
inactive: ACHN > 100 µM | SN12C > 100 µM | EKVX > 100 µM | UACC-62 > 100 µM | SNB-75 > 100 µM | SR > 100 µM | LOX IMVI > 100 µM | HOP-62 > 100 µM | Hs-578T > 100 µM | MOLT-4 > 100 µM | SF-539 > 100 µM | SK-MEL-28 > 100 µM | A498 > 100 µM | 786-0 > 100 µM | SK-OV-3 > 100 µM | SF-295 > 100 µM | UO-31 > 100 µM | HCC 2998 > 100 µM | RXF 393 > 100 µM

COC(=O)C(=O)C(C(=O)C(=O)Nc1ccccc1[N+](=O)[O-])c1nc2ccc([N+](=O)[O-])cc2nc1O (stereo not drawn)
inactive: ACHN > 100 µM | SN12C > 100 µM | EKVX > 100 µM | UACC-62 > 100 µM | SNB-75 > 100 µM | SR > 100 µM | LOX IMVI > 100 µM | MOLT-4 > 100 µM | SK-MEL-28 > 100 µM | A498 > 100 µM | 786-0 > 100 µM | SK-OV-3 > 100 µM | KM-20L2 > 100 µM | SF-295 > 100 µM | UO-31 > 100 µM | RXF 393 > 100 µM

CN(C(=O)c1ccco1)C(=S)N1CCN(c2ccccc2)CC1
inactive: ACHN > 100 µM | SN12C > 100 µM | UACC-62 > 100 µM | SNB-75 > 100 µM | SR > 100 µM | LOX IMVI > 100 µM | HOP-62 > 100 µM | MOLT-4 > 100 µM | SF-539 > 100 µM | SK-MEL-28 > 100 µM | 786-0 > 100 µM | SK-OV-3 > 100 µM | KM-20L2 > 100 µM | SF-295 > 100 µM | UO-31 > 100 µM | RXF 393 > 100 µM

O=C1C(=Cc2ccc(F)cc2)C(=O)c2ccccc21
inactive: ACHN > 100 µM | EKVX > 100 µM | UACC-62 > 100 µM | SNB-75 24.9 µM | HOP-62 > 100 µM | MOLT-4 42 µM | SF-539 > 100 µM | SK-MEL-28 > 100 µM | A498 > 100 µM | 786-0 > 100 µM | SK-OV-3 > 100 µM | KM-20L2 > 100 µM | SF-295 > 100 µM | UO-31 > 100 µM | HCC 2998 > 100 µM

CC(=O)Nc1ccc2cc3[nH]c4cc(NC(C)=O)ccc4c3nc2c1
inactive: ACHN > 100 µM | SN12C > 100 µM | EKVX > 100 µM | UACC-62 > 100 µM | SNB-75 > 100 µM | SR 61.1 µM | LOX IMVI > 100 µM | HOP-62 > 100 µM | Hs-578T > 100 µM | MOLT-4 24.9 µM | SF-539 > 100 µM | SK-MEL-28 > 100 µM | A498 > 100 µM | 786-0 > 100 µM | SK-OV-3 > 100 µM | SF-295 > 100 µM | UO-31 > 100 µM | HCC 2998 > 100 µM | RXF 393 > 100 µM

c1ccc(SC(Sc2ccccc2)=C2CCC2)cc1
inactive: ACHN > 100 µM | SN12C > 100 µM | EKVX > 100 µM | UACC-62 65 µM | SNB-75 98.4 µM | SR > 100 µM | LOX IMVI > 100 µM | HOP-62 > 100 µM | MOLT-4 > 100 µM | SF-539 > 100 µM | SK-MEL-28 > 100 µM | A498 > 100 µM | 786-0 > 100 µM | SK-OV-3 > 100 µM | KM-20L2 > 100 µM | SF-295 > 100 µM | UO-31 > 100 µM | RXF 393 > 100 µM

O=c1c2ccccc2nc(-c2ccccc2Cl)n1NC1OC(CO)C(O)C(O)C1O (stereo not drawn)
inactive: ACHN > 100 µM | SN12C > 100 µM | EKVX > 100 µM | UACC-62 > 100 µM | SNB-75 97.9 µM | HOP-62 > 100 µM | MOLT-4 > 100 µM | SF-539 > 100 µM | SK-MEL-28 > 100 µM | A498 > 100 µM | 786-0 > 100 µM | SK-OV-3 > 100 µM | KM-20L2 > 100 µM | SF-295 > 100 µM | UO-31 > 100 µM | HCC 2998 > 100 µM

CCC12C=CCN3CCC4(c5cc(C(c6ccc(OC)cc6)C6Cc7ccccc7N6)c(OC)cc5N(C)C4C(O)(C(=O)OC)C1O)C32 (stereo not drawn)
inactive: ACHN 19.2 µM | SN12C 37.4 µM | EKVX 36.1 µM | UACC-62 11.8 µM | SNB-75 3.66 µM | SR 8.04 µM | LOX IMVI 14.1 µM | HOP-62 26.5 µM | Hs-578T 63.7 µM | MOLT-4 2.26 µM | SF-539 21 µM | SK-MEL-28 30.2 µM | A498 11.6 µM | 786-0 18.7 µM | SK-OV-3 29.4 µM | SF-295 18.3 µM | UO-31 10.2 µM | HCC 2998 20 µM | RXF 393 14.3 µM

CSc1nnc(COc2ccc(Cl)cc2)o1
inactive: ACHN > 100 µM | SN12C > 100 µM | EKVX > 100 µM | UACC-62 > 100 µM | SNB-75 > 100 µM | LOX IMVI > 100 µM | HOP-62 > 100 µM | SF-539 > 100 µM | SK-MEL-28 > 100 µM | A498 > 100 µM | 786-0 > 100 µM | SK-OV-3 > 100 µM | KM-20L2 > 100 µM | SF-295 > 100 µM | UO-31 > 100 µM | RXF 393 > 100 µM

— ChEMBL document CHEMBL1201862, “PubChem BioAssay data set” (2004)
